These results are taken from patent US20260125382A1, “COMPOUNDS FOR INHIBITING OR DEGRADING CDK2 AND/OR CDK9 AND MEDICINAL USE THEREOF” (KOREA RESEARCH INSTITUTE OF CHEMICAL TECHNOLOGY, priority 2022, published 2026).

For one experiment, the target named is T1, CDK2 (Homo sapiens, UniProt P24941).
T1 construct: endogenous in cells; host or cells: MDA-MB-231
As to the kind of experiment: CDK protein degradation activity (Western blotting), CDK2. The class given is cell-based. The settings on record: MDA-MB-231 cells, 16 hours, Western blot. An outline of the steps:
(§1)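 MDA-MB-231 cells treated 16 h with compound at 100 nM, 1 μM or 10 μM, with DMSO as control. Lysates run on SDS-PAGE and immunoblotted for CDK2, CDK9 and tubulin; band levels quantified by densitometry.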
In general terms: Immunoblotting shows a protein as a band on a membrane.

Another experiment has as its target T2, CDK9 (Homo sapiens, UniProt P50750).
T2 construct: endogenous in cells; host or cells: MDA-MB-231
As to the kind of experiment: CDK protein degradation activity (Western blotting), CDK9. The class given is cell-based. The settings on record: MDA-MB-231 cells, 16 hours, Western blot. The gist of the method:
as §1

The structures appear in SMILES notation.

T2 sequence (P50750 whole entry): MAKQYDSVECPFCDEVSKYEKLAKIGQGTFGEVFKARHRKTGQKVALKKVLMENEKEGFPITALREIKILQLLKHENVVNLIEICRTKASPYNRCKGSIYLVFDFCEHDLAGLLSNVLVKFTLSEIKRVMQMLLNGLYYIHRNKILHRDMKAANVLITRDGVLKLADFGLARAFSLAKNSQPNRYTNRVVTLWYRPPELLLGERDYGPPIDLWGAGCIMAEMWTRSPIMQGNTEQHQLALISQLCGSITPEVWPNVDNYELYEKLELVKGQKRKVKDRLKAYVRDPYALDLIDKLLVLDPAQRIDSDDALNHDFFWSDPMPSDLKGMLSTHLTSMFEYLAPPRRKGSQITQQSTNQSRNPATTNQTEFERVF

As for `Cc1cccc(C(=O)N[C@H]2C[C@@H](n3cnc4c(Nc5ccc(N6CCN(CC7CCN(C(=O)C8CN(c9ccc%10c(c9)C(=O)N([C@H]9CCC(=O)NC9=O)C%10=O)C8)CC7)CC6)cc5)ncnc43)C2)n1` [Compound 401, N-((1s,3s)-3-(6-((4-(4-((1-(1-(2-(2,6-dioxopiperidin-3-yl)-1,3-dioxoisoindolin-5-yl)azetidin-3-carbonyl)piperidin-4-yl)methyl)piperazin-1-yl)phenyl)amino)-9H-purin-9-yl)cyclobutyl)-6-methylpicolinamide], at CDK2, the “Enzyme degradation CDK2 (% remaining) @ 0.1 μM” value was 30%, the “Enzyme degradation CDK2 (% remaining) @ 1 μM” value came to 20% and the “Enzyme degradation CDK2 (% remaining) @ 10 μM” value came to 20%. Further, at CDK9, the “Enzyme degradation CDK9 (% remaining) @ 0.1 μM” value is given as 0/0/0%, the “Enzyme degradation CDK9 (% remaining) @ 1 μM” value was 0/0/0% and the “Enzyme degradation CDK9 (% remaining) @ 10 μM” value was 0/0/0%.

In the case of `Cc1cccc(C(=O)NC2CC(n3cnc4c(NCCC5CCN(CC6CCN(CC7CN(c8ccc9c(c8)C(=O)N([C@H]8CCC(=O)NC8=O)C9=O)C7)CC6)CC5)ncnc43)C2)n1` (stereo partly drawn) [Compound 402, N-((1s,3s)-3-(6-((2-(1-((1-((1-(2-(2,6-dioxopiperidin-3-yl)-1,3-dioxoisoindolin-5-yl)azetidin-3-yl)methyl)piperidin-4-yl)methyl)piperidin-4-yl)ethyl)amino)-9H-purin-9-yl)cyclobutyl)-6-methylpicolinamide], on CDK2, the “Enzyme degradation CDK2 (% remaining) @ 0.1 μM” value came out at 70%, the “Enzyme degradation CDK2 (% remaining) @ 1 μM” value stood at 50% and the “Enzyme degradation CDK2 (% remaining) @ 10 μM” value came out at 50%. For the same compound, at CDK9, the “Enzyme degradation CDK9 (% remaining) @ 0.1 μM” value is 0/0/0%, the “Enzyme degradation CDK9 (% remaining) @ 1 μM” value is recorded as 0/0/0% and the “Enzyme degradation CDK9 (% remaining) @ 10 μM” value is 0/0/0%.

`Cc1cccc(C(=O)NC2CC(n3cnc4c(Nc5ccc(N6CCN(C7CC8(CCN(C(=O)C9CCN(c%10ccc%11c(c%10)C(=O)N([C@H]%10CCC(=O)NC%10=O)C%11=O)CC9)CC8)C7)CC6)cc5)ncnc43)C2)n1` (stereo partly drawn) [Compound 403, N-((1s,3s)-3-(6-((4-(4-(7-(1-(2-(2,6-dioxopiperidin-3-yl)-1,3-dioxoisoindolin-5-yl)piperidin-4-carbonyl)-7-azaspiro[3.5]nonan-2-yl)piperazin-1-yl)phenyl)amino)-9H-purin-9-yl)cyclobutyl)-6-methylpicolinamide]: on CDK2, the “Enzyme degradation CDK2 (% remaining) @ 0.1 μM” value is reported as 60%, the “Enzyme degradation CDK2 (% remaining) @ 1 μM” value is recorded as 60% and the “Enzyme degradation CDK2 (% remaining) @ 10 μM” value amounted to 90%. Besides, at CDK9, the “Enzyme degradation CDK9 (% remaining) @ 0.1 μM” value is recorded as 0/0/0%, the “Enzyme degradation CDK9 (% remaining) @ 1 μM” value was 0/0/0% and the “Enzyme degradation CDK9 (% remaining) @ 10 μM” value is 0/0/0%.

Regarding `O=C1CC[C@H](N2C(=O)c3ccc(N4CCC(CCN5CCN(c6ccc(Nc7ncnc8c7ncn8[C@H]7C[C@@H](NC(=O)c8c(Cl)cccc8Cl)C7)cc6)CC5)CC4)cc3C2=O)C(=O)N1` [Compound 405, 2,6-dichloro-N-((1s,3s)-3-(6-((4-(4-(2-(1-(2-(2,6-dioxopiperidin-3-yl)-1,3-dioxoisoindolin-5-yl)piperidin-4-yl)ethyl)piperazin-1-yl)phenyl)amino)-9H-purin-9-yl)cyclobutyl)benzamide], at CDK2, the “Enzyme degradation CDK2 (% remaining) @ 0.1 μM” value is listed as 50/50/50%, the “Enzyme degradation CDK2 (% remaining) @ 1 μM” value is reported as 50/50/50% and the “Enzyme degradation CDK2 (% remaining) @ 10 μM” value is 50/50/50%. On CDK9, the “Enzyme degradation CDK9 (% remaining) @ 0.1 μM” value is 0/0/0%, the “Enzyme degradation CDK9 (% remaining) @ 1 μM” value was 0/0/0% and the “Enzyme degradation CDK9 (% remaining) @ 10 μM” value is on record as 0/0/0%.

In the case of `O=C1CC[C@H](N2C(=O)c3cc(F)c(N4CCC(CCN5CCN(c6ccc(Nc7ncnc8c7ncn8C7CC(NC(=O)c8c(Cl)cccc8Cl)C7)cc6)CC5)CC4)cc3C2=O)C(=O)N1` (stereo partly drawn) [Compound 406, 2,6-dichloro-N-((1s,3s)-3-(6-((4-(4-(2-(1-(2-(2,6-dioxopiperidin-3-yl)-6-fluoro-1,3-dioxoisoindolin-5-yl)piperidin-4-yl)ethyl)piperazin-1-yl)phenyl)amino)-9H-purin-9-yl)cyclobutyl)benzamide], at CDK2, the “Enzyme degradation CDK2 (% remaining) @ 0.1 μM” value is 30/30/30%, the “Enzyme degradation CDK2 (% remaining) @ 1 μM” value was 30/30/30% and the “Enzyme degradation CDK2 (% remaining) @ 10 μM” value was 30/30/30%. For the same compound, at CDK9, the “Enzyme degradation CDK9 (% remaining) @ 0.1 μM” value is recorded as 0/0/0%, the “Enzyme degradation CDK9 (% remaining) @ 1 μM” value is listed as 0/0/0% and the “Enzyme degradation CDK9 (% remaining) @ 10 μM” value is given as 0/0/0%.

`O=C1CCC(n2nnc3ccc(N4CCC(CCN5CCN(c6ccc(Nc7ncnc8c7ncn8[C@H]7C[C@@H](NC(=O)c8c(Cl)cccc8Cl)C7)cc6)CC5)CC4)cc3c2=O)C(=O)N1` (stereo partly drawn) [Compound 407, 2,6-dichloro-N-((1s,3s)-3-(6-((4-(4-(2-(1-(3-(2,6-dioxopiperidin-3-yl)-4-oxo-3,4-dihydrobenzo[d][1,2,3]triazin-6-yl)piperidin-4-yl)ethyl)piperazin-1-yl)phenyl)amino)-9H-purin-9-yl)cyclobutyl)benzamide]: at CDK2, the “Enzyme degradation CDK2 (% remaining) @ 0.1 μM” value is reported as 60/60/60%, the “Enzyme degradation CDK2 (% remaining) @ 1 μM” value is on record as 60/60/60% and the “Enzyme degradation CDK2 (% remaining) @ 10 μM” value is 60/60/60%. At CDK9, the “Enzyme degradation CDK9 (% remaining) @ 0.1 μM” value is reported as 0/0/0%, the “Enzyme degradation CDK9 (% remaining) @ 1 μM” value is 0/0/0% and the “Enzyme degradation CDK9 (% remaining) @ 10 μM” value was 0/0/0%.

With `O=C1CC[C@H](N2C(=O)c3ccc(CCCCN4CCC(N5CCN(c6ccc(Nc7ncnc8c7ncn8C7CC(NC(=O)Cc8ccccc8)C7)cc6)CC5)CC4)cc3C2=O)C(=O)N1` (stereo partly drawn) [Compound 408, N-((1s,3s)-3-(6-((4-(4-(1-(4-(2-(2,6-dioxopiperidin-3-yl)-1,3-dioxoisoindolin-5-yl)butyl)piperidin-4-yl)piperazin-1-yl)phenyl)amino)-9H-purin-9-yl)cyclobutyl)-2-phenylacetamide], at CDK2, the “Enzyme degradation CDK2 (% remaining) @ 0.1 μM” value stood at 40%, the “Enzyme degradation CDK2 (% remaining) @ 1 μM” value was 30% and the “Enzyme degradation CDK2 (% remaining) @ 10 μM” value turned out to be 30%. Moreover, on CDK9, the “Enzyme degradation CDK9 (% remaining) @ 0.1 μM” value came to 20%, the “Enzyme degradation CDK9 (% remaining) @ 1 μM” value was 10% and the “Enzyme degradation CDK9 (% remaining) @ 10 μM” value came out at 10%.

On to `O=C1CCC(N2C(=O)c3cc(F)c(N4CCC(CN5CCC(CCNc6ncnc7c6ncn7[C@H]6C[C@@H](NC(=O)Cc7ccccc7)C6)CC5)CC4)cc3C2=O)C(=O)N1` (stereo partly drawn) [Compound 409, N-((1s,3s)-3-(6-((2-(1-((1-(2-(2,6-dioxopiperidin-3-yl)-6-fluoro-1,3-dioxoisoindolin-5-yl)piperidin-4-yl)methyl)piperidin-4-yl)ethyl)amino)-9H-purin-9-yl)cyclobutyl)-2-phenylacetamide], for which, at CDK2, the “Enzyme degradation CDK2 (% remaining) @ 0.1 μM” value was determined as 70%, the “Enzyme degradation CDK2 (% remaining) @ 1 μM” value came to 40% and the “Enzyme degradation CDK2 (% remaining) @ 10 μM” value is listed as 40%. In addition, on CDK9, the “Enzyme degradation CDK9 (% remaining) @ 0.1 μM” value was 70%, the “Enzyme degradation CDK9 (% remaining) @ 1 μM” value is given as 50% and the “Enzyme degradation CDK9 (% remaining) @ 10 μM” value is 10%.

Turning to `O=C1CC[C@H](n2nnc3ccc(N4CCC(CN5CCC(CCNc6ncnc7c6ncn7C6CC(NC(=O)Cc7ccccc7)C6)CC5)CC4)cc3c2=O)C(=O)N1` (stereo partly drawn) [Compound 410, N-((1s,3s)-3-(6-((2-(1-((1-(3-(2,6-dioxopiperidin-3-yl)-4-oxo-3,4-dihydrobenzo[d][1,2,3]triazin-6-yl)piperidin-4-yl)methyl)piperidin-4-yl)ethyl)amino)-9H-purin-9-yl)cyclobutyl)-2-phenylacetamide], on CDK2, the “Enzyme degradation CDK2 (% remaining) @ 0.1 μM” value came to 30%, the “Enzyme degradation CDK2 (% remaining) @ 1 μM” value was determined as 20% and the “Enzyme degradation CDK2 (% remaining) @ 10 μM” value amounted to 20%. Moreover, on CDK9, the “Enzyme degradation CDK9 (% remaining) @ 0.1 μM” value amounted to 30%, the “Enzyme degradation CDK9 (% remaining) @ 1 μM” value came to 20% and the “Enzyme degradation CDK9 (% remaining) @ 10 μM” value came to 20%.

With `O=C1CC[C@H](N2C(=O)c3ccc(N4CC(C(=O)N5CCC(CN6CCC(CCNc7ncnc8c7ncn8[C@H]7C[C@@H](NC(=O)Cc8ccccc8)C7)CC6)CC5)C4)cc3C2=O)C(=O)N1` [Compound 411, N-((1s,3s)-3-(6-((2-(1-((1-(1-(2-(2,6-dioxopiperidin-3-yl)-1,3-dioxoisoindolin-5-yl)azetidin-3-carbonyl)piperidin-4-yl)methyl)piperidin-4-yl)ethyl)amino)-9H-purin-9-yl)cyclobutyl)-2-phenylacetamide], on CDK2, the “Enzyme degradation CDK2 (% remaining) @ 0.1 μM” value is listed as 40/40/40%, the “Enzyme degradation CDK2 (% remaining) @ 1 μM” value is on record as 40/40/40% and the “Enzyme degradation CDK2 (% remaining) @ 10 μM” value was 40/40/40%. Besides, at CDK9, the “Enzyme degradation CDK9 (% remaining) @ 0.1 μM” value is 10/10/10%, the “Enzyme degradation CDK9 (% remaining) @ 1 μM” value was 10/10/10% and the “Enzyme degradation CDK9 (% remaining) @ 10 μM” value is 10/10/10%.

On to `O=C1CC[C@H](N2C(=O)c3ccc(N4CC(C(=O)N5CCC(CCN6CCN(c7ccc(Nc8ncnc9c8ncn9C8CC(NC(=O)c9c(Cl)cccc9Cl)C8)cc7)CC6)CC5)C4)cc3C2=O)C(=O)N1` (stereo partly drawn) [Compound 412, 2,6-dichloro-N-((1s,3s)-3-(6-((4-(4-(2-(1-(1-(2-(2,6-dioxopiperidin-3-yl)-1,3-dioxoisoindolin-5-yl)azetidin-3-carbonyl)piperidin-4-yl)ethyl)piperazin-1-yl)phenyl)amino)-9H-purin-9-yl)cyclobutyl)benzamide], for which, on CDK2, the “Enzyme degradation CDK2 (% remaining) @ 0.1 μM” value is on record as 30/30/30%, the “Enzyme degradation CDK2 (% remaining) @ 1 μM” value was 30/30/30% and the “Enzyme degradation CDK2 (% remaining) @ 10 μM” value is listed as 30/30/30%. Moreover, at CDK9, the “Enzyme degradation CDK9 (% remaining) @ 0.1 μM” value is on record as 10/10/10%, the “Enzyme degradation CDK9 (% remaining) @ 1 μM” value was 10/10/10% and the “Enzyme degradation CDK9 (% remaining) @ 10 μM” value is on record as 10/10/10%.
